pIC50: −log10 of the molar value.
Tests used:
[1] = tested on: KRas G12D-mediated Phosphorylation of ERK; experiment: Inhibition of KRas G12D-mediated Phosphorylation of ERK in AGS cells; format: cell-based; details: Homo sapiens; AGS cells expressing G12D, 3 hours, phospho-ERK normalized to GAPDH
Protocol: AGS cells (ATCC CRL-1739) expressing G12D were grown in DMEM medium supplemented with 10% fetal bovine serum, 10 mM HEPES, and Penicillin/Streptomycin. Cells were plated in tissue culture treated 96 well plates at a density of 40,000 cells/well and allowed to attach for 12-14 hours. Diluted compounds were then added in a final concentration of 0.5% DMSO. After 3 hours, the medium was removed, 150 μl of 4.0% formaldehyde was added and the plates incubated at room temperature for 20 minutes. The plates were washed with PBS, and permeabilized with 150 μL of ice cold 100% methanol for 10 minutes. Non-specific antibody binding to the plates was blocked using 100 μL Licor blocking buffer (Li-Cor Biotechnology, Lincoln NE) for 1 hour at room temperature.
The amount of phospho-ERK was determined using an antibody specific for the phosphorylated form of ERK and compared to the amount of GAPDH. Primary antibodies used for the detection were added as follows: Phospho-ERK(Cell Signaling cs-9101) diluted 1:500 and GAPDH(Millipore MAB374) diluted 1:5000 in Licor block+0.05% Tween 20. The plates were incubated for 2 hours at room temperature. The plates were washed with PBS+0.05% Tween 20.
Secondary antibodies used to visualize primary antibodies were added as follows: Anti-rabbit-680 diluted 1:1000 and Anti-mouse-800 diluted 1:1000 both in Licor block+0.05% Tween20, and were incubated for 1 hour at room temperature. The plates were washed with PBS+0.05% Tween 20. A 100 μl aliquot of PBS was added to each well and the plates were read on a Li-Cor Odyssey CLX plate reader.
The phospho-ERK(Thr202/Tyr204 signal was normalized to the GAPDH signal for each well and percent of DMSO control values were calculated. IC50 values were generated using a 4-parameter fit of the dose response curve.

KRas G12D = KRas G12D (Homo sapiens, UniProt P01116, G12D); experiment: KRas G12D Binding Assay (TR-FRET displacement of labeled tracer); design: corresponding to amino acids 1:169, produced at Array BioPharma; biotin (protein is biotinylated); details: TR-FRET displacement of Cy5 labelled tracer, biotinylated GDP-loaded KRAS G12D (aa 1:169), 60 minute incubation at 22° C.
Protocol: This Example illustrates that exemplary compounds of the present invention bind to KRas G12D and are capable of displacing a labeled tracer ligand occupying the KRas G12D binding site.
The ability of a compound to bind to KRAS G12D was measured using a TR-FRET displacement assay. Biotinylated GDP-loaded recombinant human KRAS G12D (corresponding to amino acids 1:169, produced at Array BioPharma) was incubated with a custom-made Cy5 labelled tracer, europium labelled streptavidin and compound (2% DMSO final) in buffer (50 mM HEPES [pH 7.5], 5 mM MgCl2, 0.005% Tween-20 & 1 mM DTT). After a 60 minute incubation at 22° C., the reaction was measured using a PerkinElmer EnVision multimode plate reader via TR-FRET dual wavelength detection, and the percent of control (POC) calculated using a ratiometric emission factor. […] The POC values were fit to a 4-parameter logistic curve and the IC50 value was determined as the concentration where the curve crosses 50 POC.

KRas G12D, sequence (P01116 1-169 isoform P01116-2 G12D): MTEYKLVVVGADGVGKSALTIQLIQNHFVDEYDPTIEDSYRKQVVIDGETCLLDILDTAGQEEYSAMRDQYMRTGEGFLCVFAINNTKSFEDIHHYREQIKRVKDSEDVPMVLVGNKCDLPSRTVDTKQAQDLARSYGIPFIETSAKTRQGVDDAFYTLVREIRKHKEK

Row | Structure (SMILES) | pIC50 [1] | pIC50 (KRas G12D)
1 | COC[C@@H]1C[C@@H]2CN(c3nc(OC[C@@H]4CCCN4C)nc4c3CCN(c3cccc5cccc(Cl)c35)C4)C[C@H]1N2 (single isomer, unassigned) [Example 93] | < 4.78 | 6.44
2 | CCc1cccc2cccc(N3CCc4c(nc(OCC56CCCN5[C@@H](COC(=O)NC)CC6)nc4N4CC5CCC(C4)N5)C3)c12 (stereo partly drawn) [Example 5, (7a-(((4-((1R,5S)-3,8-diazabicyclo[3.2.1]octan-3-yl)-7-(8-ethylnaphthalen-1-yl)-5,6,7,8-tetrahydropyrido[3,4-d]pyrimidin-2-yl)oxy)methyl)hexahydro-1H-pyrrolizin-3-yl)methyl methylcarbamate (trans enantiomers)] | 6.85 | 8.80
3 | CCc1cccc2cc(O)cc(N3CCc4c(nc(OC[C@@]56CCCN5C[C@H](F)C6)nc4N4C[C@H]5CC[C@@H](C4)N5)C3)c12 [Example 7, 4-(4-((1R,5S)-3,8-diazabicyclo[3.2.1]octan-3-yl)-2-(((2R,7aS)-2-fluorotetrahydro-1H-pyrrolizin-7a(5H)-yl)methoxy)-5,8-dihydropyrido[3,4-d]pyrimidin-7(6H)-yl)-5-ethylnaphthalen-2-ol] | 7.89 | 9.00
4 | CCc1cccc2cccc(N3CCc4c(nc(OC[C@@H]5CCCN5C)nc4N4C[C@H]5CC[C@@H](C4)N5)C3)c12 [Example 8, 4-((1R,5S)-3,8-diazabicyclo[3.2.1]octan-3-yl)-7-(8-ethylnaphthalen-1-yl)-2-(((S)-1-methylpyrrolidin-2-yl)methoxy)-5,6,7,8-tetrahydropyrido[3,4-d]pyrimidine] | 4.90 | 8.26
5 | CCc1cccc2cccc(N3CCc4c(nc(OCC56CCCN5CCC6)nc4N4C[C@H]5CC[C@@H](C4)N5)C3)c12 [Example 10, 4-((1R,5S)-3,8-diazabicyclo[3.2.1]octan-3-yl)-7-(8-ethylnaphthalen-1-yl)-2-((tetrahydro-1H-pyrrolizin-7a(5H)-yl)methoxy)-5,6,7,8-tetrahydropyrido[3,4-d]pyrimidine] | 6.13 | 8.96
6 | CCc1cccc2cccc(N3CCc4c(nc(OCC56CCCN5[C@@H](COC(=O)N(C)C)CC6)nc4N4CC5CCC(C4)N5)C3)c12 (stereo partly drawn) [Example 13, (7a-(((4-((1R,5S)-3,8-diazabicyclo[3.2.1]octan-3-yl)-7-(8-ethylnaphthalen-1-yl)-5,6,7,8-tetrahydropyrido[3,4-d]pyrimidin-2-yl)oxy)methyl)hexahydro-1H-pyrrolizin-3-yl)methyl dimethylcarbamate (trans enantiomers)] | 6.58 | 8.89
7 | CCc1cccc2cc(O)cc(N3CCc4c(nc(OCC56CCCN5CCC6)nc4N4C[C@H]5CC[C@@H](C4)N5)C3)c12 [Example 14, 4-(4-((1R,5S)-3,8-diazabicyclo[3.2.1]octan-3-yl)-2-((tetrahydro-1H-pyrrolizin-7a(5H)-yl)methoxy)-5,8-dihydropyrido[3,4-d]pyrimidin-7(6H)-yl)-5-ethylnaphthalen-2-ol] | 7.68 | 8.96
8 | CCc1cccc2cccc(N3CCc4c(nc(OC[C@]56CCCN5[C@@H](COC(=O)NC)CC6)nc4N4C[C@H]5CC[C@@H](C4)N5)C3)c12 [Example 18, ((3R,7aR)-7a-(((4-((1R,5S)-3,8-diazabicyclo[3.2.1]octan-3-yl)-7-(8-ethylnaphthalen-1-yl)-5,6,7,8-tetrahydropyrido[3,4-d]pyrimidin-2-yl)oxy)methyl)hexahydro-1H-pyrrolizin-3-yl)methyl methylcarbamate] | 7.15 | 8.70
9 | CCc1c(F)ccc2cccc(N3CCc4c(nc(OCC56CCCN5CCC6)nc4N4C[C@H]5CC[C@@H](C4)N5)C3)c12 [Example 19, 4-((1R,5S)-3,8-diazabicyclo[3.2.1]octan-3-yl)-7-(8-ethyl-7-fluoronaphthalen-1-yl)-2-((tetrahydro-1H-pyrrolizin-7a(5H)-yl)methoxy)-5,6,7,8-tetrahydropyrido[3,4-d]pyrimidine] | 6.49 | 8.74
10 | CN(C)C(=O)OC[C@H]1CCC2(COc3nc4c(c(N5CC6CCC(C5)N6)n3)CCN(c3cccc(Cl)c3C3CC3)C4)CCCN12 (stereo partly drawn) [Example 33, (7a-(((4-((1R,5S)-3,8-diazabicyclo[3.2.1]octan-3-yl)-7-(3-chloro-2-cyclopropylphenyl)-5,6,7,8-tetrahydropyrido[3,4-d]pyrimidin-2-yl)oxy)methyl)hexahydro-1H-pyrrolizin-3-yl)methyl dimethylcarbamate (trans enantiomers)] | 5.26 | 7.30
11 | CNC(=O)OC[C@H]1CCC2(COc3nc4c(c(N5CC6CCC(C5)N6)n3)CCN(c3cccc5cccc(F)c35)C4)CCCN12 (stereo partly drawn) [Example 34, (7a-(((4-((1R,5S)-3,8-diazabicyclo[3.2.1]octan-3-yl)-7-(8-fluoronaphthalen-1-yl)-5,6,7,8-tetrahydropyrido[3,4-d]pyrimidin-2-yl)oxy)methyl)hexahydro-1H-pyrrolizin-3-yl)methyl methylcarbamate (trans enantiomers)] | 5.41 | 6.95
12 | CN1CCC[C@H]1COc1nc2c(c(N3C[C@H]4C[C@H](O)[C@@H](C3)N4)n1)CCN(c1cccc3cccc(Cl)c13)C2 [Example 96, (1R,5R,6S)-3-(7-(8-chloronaphthalen-1-yl)-2-(((S)-1-methylpyrrolidin-2-yl)methoxy)-5,6,7,8-tetrahydropyrido[3,4-d]pyrimidin-4-yl)-3,8-diazabicyclo[3.2.1]octan-6-ol] | < 4.78 | 6.48
13 | CCc1cccc2cccc(N3CCc4c(nc(OC[C@]56CCCN5[C@@H](COC(=O)N5CCOCC5)CC6)nc4N4C[C@H]5CC[C@@H](C4)N5)C3)c12 [Example 97, ((3R,7aR)-7a-(((4-((1R,5S)-3,8-diazabicyclo[3.2.1]octan-3-yl)-7-(8-ethylnaphthalen-1-yl)-5,6,7,8-tetrahydropyrido[3,4-d]pyrimidin-2-yl)oxy)methyl)hexahydro-1H-pyrrolizin-3-yl)methyl morpholine-4-carboxylate] | 6.73 | 8.92
14 | CCc1c(F)ccc2cccc(N3CCc4c(nc(OC[C@]56CCCN5[C@@H](COC(=O)N5CCOCC5)CC6)nc4N4C[C@H]5CC[C@@H](C4)N5)C3)c12 [Example 98, ((3R,7aR)-7a-(((4-((1R,5S)-3,8-diazabicyclo[3.2.1]octan-3-yl)-7-(8-ethyl-7-fluoronaphthalen-1-yl)-5,6,7,8-tetrahydropyrido[3,4-d]pyrimidin-2-yl)oxy)methyl)hexahydro-1H-pyrrolizin-3-yl)methyl morpholine-4-carboxylate] | 7.30 | 9.15
15 | CCc1cccc2cccc(N3CCc4c(nc(OC[C@]56CCCN5[C@@H](COC(=O)N5CCCC5)CC6)nc4N4C[C@H]5CC[C@@H](C4)N5)C3)c12 [Example 99, ((3R,7aR)-7a-(((4-((1R,5S)-3,8-diazabicyclo[3.2.1]octan-3-yl)-7-(8-ethylnaphthalen-1-yl)-5,6,7,8-tetrahydropyrido[3,4-d]pyrimidin-2-yl)oxy)methyl)hexahydro-1H-pyrrolizin-3-yl)methyl pyrrolidine-1-carboxylate] | 6.25 | 8.57
16 | CCc1cccc2cccc(N3CCc4c(nc(OCC56CCCN5C(COC(=O)N5CC[C@H](O)C5)CC6)nc4N4C[C@H]5CC[C@@H](C4)N5)C3)c12 (stereo partly drawn) [Example 105, (7a-(((4-((1R,5S)-3,8-diazabicyclo[3.2.1]octan-3-yl)-7-(8-ethylnaphthalen-1-yl)-5,6,7,8-tetrahydropyrido[3,4-d]pyrimidin-2-yl)oxy)methyl)hexahydro-1H-pyrrolizin-3-yl)methyl (3S)-3-hydroxypyrrolidine-1-carboxylate] | 6.25 | 8.64

Reference: US12686692B2, “KRas G12D inhibitors” (Mirati Therapeutics, Inc., priority 2020, dated 2026)
